Assay results published in PubChem BioAssay (NCI).
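Dose response: 5 concentrations. Exposure: 48 h. Format: 96-well plates. Endpoint: linear interpolation; highest concentration if not reached. GI50 is the concentration that inhibits growth by half. Definition used: TGI = concentration required for complete inhibition of growth.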

Experiments:
Assay in all cases: inhibition of tumour cell growth, NCI panel, 48 h
OVCAR-4 ovarian = test system: OVCAR-4 ovarian
SK-OV-3 ovarian = test system: SK-OV-3 ovarian
HL-60(TB) leukemia = test system: HL-60(TB) leukemia
UO-31 renal = test system: UO-31 renal
NCI-H23 lung = test system: NCI-H23 lung
U251 CNS = test system: U251 CNS
HT29 colon = test system: HT29 colon
NCI-H226 lung = test system: NCI-H226 lung
T-47D breast = test system: T-47D breast
COLO 205 colon = test system: COLO 205 colon

Compound | TGI (OVCAR-4 ovarian) [µM] | TGI (SK-OV-3 ovarian) [µM] | TGI (HL-60(TB) leukemia) [µM] | TGI (UO-31 renal) [µM] | TGI (NCI-H23 lung) [µM] | TGI (U251 CNS) [µM] | TGI (HT29 colon) [µM] | TGI (NCI-H226 lung) [µM] | TGI (T-47D breast) [µM] | TGI (COLO 205 colon) [µM] | GI50 (OVCAR-4 ovarian) [µM] | GI50 (SK-OV-3 ovarian) [µM] | GI50 (HL-60(TB) leukemia) [µM] | GI50 (UO-31 renal) [µM] | GI50 (NCI-H23 lung) [µM] | GI50 (U251 CNS) [µM] | GI50 (HT29 colon) [µM] | GI50 (NCI-H226 lung) [µM] | GI50 (T-47D breast) [µM] | GI50 (COLO 205 colon) [µM]
Cc1ccc(S(=O)(=O)NC(CO)C(=O)O)cc1 (stereo not given) | > 100 | > 100 | > 100 | > 100 | > 100 | > 100 | > 100 | > 100 | > 100 | > 100 |  |  |  |  |  |  |  |  |  | 
COc1cc(Cn2c(-c3ccccc3)cc3c2-c2oncc2CC3)cc(OC)c1 | > 100 | > 100 | 2.73 | > 100 | > 100 | > 100 | 25.9 | > 100 | > 100 | 0.653 | 0.664 | 0.4 | 0.264 | 0.665 | 0.452 | 0.427 | 0.315 | 0.93 | > 100 | 0.256
Cn1cc(C2=C(c3cn(CCCCC(=N)N)c4ccccc34)C(=O)NC2=O)c2ccccc21 | > 25 | > 25 | > 25 | > 25 | > 25 | > 25 | > 25 | > 25 | > 25 | > 25 | > 25 | > 25 | 16.7 | > 25 | > 25 | 17.2 | > 22.9 | > 25 | > 25 | 11.8
O=C1/C(=C\c2ccccc2)C2OCC=C3CN4CCC56c7ccccc7N1C5C2C3CC46 (stereo not given) | > 100 | > 100 | 20.9 | > 100 | > 100 | > 100 | 5.37 | > 100 | > 100 | > 100 | > 100 | > 100 | 3.47 | 4.04 | > 100 | 13.1 | 2.07 | 11.3 | 64.8 | 17.3
Cc1ccc(-c2n[nH]c(=O)c3noc(-c4ccc(C)cc4)c23)cc1 | 43.6 | 11.5 | > 100 | 44.9 | > 100 | 18.8 | 15.8 | > 100 | > 100 | 5.05 | 10.1 | 1.51 | 0.31 | 1.26 | 4.86 | 0.814 | 0.4 | 6.88 | 2.41 | 0.752
NC(=O)c1ccc(N(C(N)=O)c2c(F)cccc2F)nc1-c1ccc(F)cc1F | > 100 | > 100 | > 100 | > 100 | > 100 | > 100 | > 100 | > 100 | > 100 | > 100 | > 100 | > 100 | > 100 | > 100 | > 100 | > 100 | > 100 | > 100 | > 100 | > 100
